Reference: paper PMC8199471, “Identification, Characterization and Antihypertensive Effect In Vivo of a Novel ACE-Inhibitory Heptapeptide from Defatted Areca Nut Kernel Globulin Hydrolysates” (Molecules, 2021)
Each block holds one molecule with its values, some of them ahead of it. Ends that are not written are not given here.

What was measured:
ACE (from rabbit lung) = target: T1, ACE (from rabbit lung) (Oryctolagus cuniculus, UniProt P12822); assay: ACE-inhibitory activity assay (HHL substrate, method of Jimsheena and Gowda); format: biochemical; details: synthesized peptide; calculated from regression y = 12.464 ln(x) − 28.656
T1 construct: ACE (from rabbit lung); purchased Sigma Co., St. Louis, MO, USA; host or cells: rabbit lung (tissue-derived)
T1 sequence (P12822 34-1310): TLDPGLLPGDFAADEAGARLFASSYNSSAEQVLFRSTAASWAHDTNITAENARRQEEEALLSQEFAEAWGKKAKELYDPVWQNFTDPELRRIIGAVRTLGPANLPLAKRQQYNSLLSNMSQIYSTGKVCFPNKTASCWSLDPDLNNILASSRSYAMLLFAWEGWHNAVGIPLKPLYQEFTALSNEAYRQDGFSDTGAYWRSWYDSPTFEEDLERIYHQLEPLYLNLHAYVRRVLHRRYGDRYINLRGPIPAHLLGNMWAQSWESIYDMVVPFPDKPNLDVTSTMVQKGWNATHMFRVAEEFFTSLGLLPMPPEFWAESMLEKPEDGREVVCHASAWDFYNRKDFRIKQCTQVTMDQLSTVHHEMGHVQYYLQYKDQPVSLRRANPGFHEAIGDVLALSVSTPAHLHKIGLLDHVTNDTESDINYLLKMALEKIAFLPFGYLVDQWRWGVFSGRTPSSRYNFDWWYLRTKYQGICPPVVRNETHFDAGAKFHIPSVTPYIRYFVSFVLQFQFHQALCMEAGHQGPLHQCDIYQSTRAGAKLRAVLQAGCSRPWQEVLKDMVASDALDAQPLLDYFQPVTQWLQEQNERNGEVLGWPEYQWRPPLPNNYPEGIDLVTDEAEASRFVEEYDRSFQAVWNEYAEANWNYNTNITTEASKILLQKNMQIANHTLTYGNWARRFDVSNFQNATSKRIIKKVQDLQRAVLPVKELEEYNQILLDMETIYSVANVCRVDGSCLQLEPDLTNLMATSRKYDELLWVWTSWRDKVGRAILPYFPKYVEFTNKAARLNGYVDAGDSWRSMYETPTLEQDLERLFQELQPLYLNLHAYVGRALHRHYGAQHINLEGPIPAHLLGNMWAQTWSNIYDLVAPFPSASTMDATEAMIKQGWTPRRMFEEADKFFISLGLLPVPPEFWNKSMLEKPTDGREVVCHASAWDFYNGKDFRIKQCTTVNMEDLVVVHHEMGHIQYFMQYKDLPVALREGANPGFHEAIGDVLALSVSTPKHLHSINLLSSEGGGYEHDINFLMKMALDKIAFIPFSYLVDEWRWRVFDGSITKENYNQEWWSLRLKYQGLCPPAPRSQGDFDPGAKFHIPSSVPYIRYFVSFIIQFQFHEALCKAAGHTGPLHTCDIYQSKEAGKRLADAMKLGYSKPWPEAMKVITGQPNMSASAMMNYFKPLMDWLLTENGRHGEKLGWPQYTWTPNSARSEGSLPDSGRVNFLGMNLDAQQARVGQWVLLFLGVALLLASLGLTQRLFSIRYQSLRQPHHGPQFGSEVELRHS
Text: Areca nut kernel was purchased from Sanpo Palm Ground Part Co., Haikou, China. Cellulase (from Trichoderma viride G, 3.0 × 10^5 U), trypsin (5 × 10^[…]) and alcalase (1 × 10^[…]) were purchased from Tian Keji Co., Ltd. (Tianjin, China). EA.hy926 cells were purchased from the Type Culture Collection of the Chinese Academy of Sciences, Shanghai, China. Captopril, ACE (from rabbit lung) and N-Hippuryl-His-Leu hydrate (HHL) were purchased from Sigma Co., St. Louis, MO, USA. Endothelin-1 Elisa kit was from Pensui Biotech Co. (Wuhan, China). DMEM (Dulbecco's modified Eagle's medium) were obtained from JiQing Biotech. Co., Ltd. (Nanjing, China). Other chemicals and reagents were of analytical grade and purchased from Peisu Co., Ltd. (Xi'an, China). ACE-inhibitory activity was determined using the same procedure as described by Jimsheena and Gowda. The concentration of the sample required for inhibiting 50% of ACE activity was defined as IC50 value. The ACE inhibition kinetics of peptides identified in ANKGH was analyzed by Lineweaver-Burk plots of 1/V versus 1/HHL in the presence of the inhibitor [17]. The concentrations of HHL (N-hippuryl-His-Leu hydrate) used were 0.76 to 7.60 mM.

[1] = system: spontaneously hypertensive rats (SHRs); assay: Antihypertensive effect in vivo, tail-cuff SBP and DBP; set-up: species or system rat; details: positive control, oral 14 mg/kg/body weight once daily, throughout the experiment period
Procedure: The antihypertensive effect of the synthesized peptide was determined as per the same procedure described by Zheng et al.. Briefly, spontaneously hypertensive rats (SHRs, male, 12 weeks age) were purchased from VRL Animal Technology Co., Ltd. (Beijing, China). The SHRs were randomly divided into positive control group, low-, middle- and high-dosage groups, and negative control group. Each group contains four rats. […] In addition, SHRs in the negative group were orally given saline (0.9%). After an adaptation period of one week, the weight, systolic blood pressure (SBP) and diastolic blood pressure (DBP) of SHRs were measured using the tail-cuff method once week. Moreover, the animal experiment was conducted in conformity with institutional guidelines for the care and use of laboratory animals in Shanxi University of Chinese Medicine, Taiyuan, China. All the rats received human care conforming to the National Institutes of Health Guide for care and Use of Laboratory Animals (Publication No. 85-23, revised 1985).

ACE = system: ACE; set-up: method as in 2 sources, one per row (each row's own in cited_ref): ref 18 = [18]; PMID 29606478; doi:10.1016/j.foodchem.2018.02.107; 18. Tu M. Wang C. Chen C. Zhang R. Liu H. Lu W. Jiang L. Du M. Identification of a novel ACE-inhibitory peptide from casein and evaluation of the inhibitory mechanisms Food Chem. 2018 256 98 104 10.10 ||| ref 20 = [20]; PMID 30229250; doi:10.1039/C8FO00569A; 20. Ling Y. Sun L.P. Zhuang Y.L. Preparation and identification of novel inhibitory angiotensin-I-converting enzyme peptides from tilapia skin gelatin hydrolysates: Inhibition kinetics and molecular d; details: peptide identified in casein protein; cited from earlier work

IC50 (ACE (from rabbit lung)): 550 µM
Molecule: APKIEEV [APKIEEV, Ala–Pro–Lys–Ile–Glu–Glu–Val]

Molecule: C[C@H](CS)C(=O)N1CCC[C@H]1C(=O)O [Captopril]
DBP of SHRs among all test groups [1]: lowest
SBP of SHRs among all test groups [1]: lowest

Molecule: NMAINPSKENLCSTFCK
IC50 (ACE): 129 µM
